{"source": "paper PMC5602130", "about": "“Food and Sex-Related Impacts on the Pharmacokinetics of a Single-Dose of Ginsenoside Compound K in Healthy Subjects” (Frontiers in Pharmacology, 2017)", "key": {"[1]": {"assay": "Food-effect trial: cumulative excretion rate from urine (0-48 h)", "format": "in vivo, human", "conditions": "single oral 200 mg CK", "experimental": "The food-effect trial was an open-label, randomized, two-period, two-treatment crossover trial, carried out from 15 January to 31 March 2015. Subjects (n = 24) were admitted to the clinical facility (Center of Clinical Pharmacology, the Third Xiangya Hospital, Central South University, Changsha, China) and randomized to receive a single 200 mg oral dose of Ginsenoside CK Tablets (4 × 50 mg tablets) either after a 10 h-fasting period or within 30 min after beginning the consumption of a recommended high-fat, high calorie breakfast (150 calories of protein, 250 calories of carbohydrates, 500 to 600 calories of fat; total calories approximately 800–1,000). Tablets were administered with 250 mL of water, to each subject, in each treatment period. Drinking was prohibited for 2 h before and after medication. Apart from this, the amount and time of drinking were not strictly controlled. Subjects had unified, standard meals 4 and 10 h after drug administration. The alternate treatment was conducted after a 14-day washout period. Urine samples were collected 0–24 and 24–48 h after the administration and the volumes were measured immediately after collection. We preserved 8 mL in centrifuge tube for PK assessment, which were stored at −70°C before analysis. Descriptive statistics of PK parameters were calculated using established non-compartmental methods, utilizing the WinNonLin version 6.1 software (Pharsight Corporation, USA). The PK parameters determined for each participant included apparent terminal half-life (t1/2), maximum plasma concentration (Cmax), time to Cmax (tmax), area under the plasma concentration-time curve from the time of administration up to the last time point with a measurable concentration post-dose (AUClast), AUC extrapolated to infinity (AUCinf), apparent volume of distribution (V/F), apparent plasma clearance (CL/F) after extravascular administration, mean residence time (MRTlast and MRTinf), and the cumulative excretion rate from urine. The t1/2 was estimated as (ln2)/K, where K represented the slope of the terminal phase of plasma concentration-time profile and was assessed with a weighting factor of 1, using least squares (log-linear regression of at least three data points). The Cmax and tmax were obtained from experimental observations. The values of AUC were calculated using conventional trapezoidal and log-trapezoidal methods and the extrapolated area (Rowland and Tozer, [1995]). CL/F and V/F were calculated as dose/AUCinf and (CL/F)/K, respectively. MRT was calculated as MRT = AUMC/AUC, where AUMC is the area under the first moment curve. The cumulative excretion rate was calculated as the amount of unchanged drug over a time interval in the urine divided by dose, and was expressed as a percentage. The processing of urine samples was similar to that of plasma samples. […] For QC samples containing 2.00, 50.10, or 801.60 ng·mL^−1 CK were prepared using homogenic human urine with the mean bias ranged from −5.54 to 3.56%, while the CVs ranged from 1.38 to 4.89%."}, "[2]": {"assay": "Food-effect trial: safety assessments (adverse events, vital signs, ECG, laboratory tests)", "format": "in vivo, human", "experimental": "All available information on the study participants was included in the summaries of safety assessments, and must be recorded on the case-report form by investigators. The safety assessment took place throughout the project, and it included continuous observation of adverse events (AEs), monitoring of vital signs, 12-lead ECGs, hematological and biochemical analyses, and urinalysis. Specifically, the monitoring began the night before drug administration (at least 10 h), when subjects were admitted to the clinical facility, and continued for 96 h after dosing. ECGs were recorded prior to the administration and 1, 4, 12, 24, 48, 72, and 96 h after the administration of CK, as well as during physical examinations before and after the trial. Apart from investigators' review, data were also obtained from subjects by recounting or narrating themselves. Subsequently, AEs were classified by intensity into mild, moderate, and severe. A second classification of AEs, based on the relationship of AEs to the test drug, was performed, dividing them into positive, probable, possible, remote, or unrelated."}, "[3]": {"assay": "Early clinical trial: sex differences of ginsenoside compound K pharmacokinetics (Supplementary Table 1)", "conditions": "human, in vivo; for Cmax: n = 12", "experimental": "Therefore, a secondary purpose of this trial is to investigate whether there are any differences in the pharmacokinetics of CK between males and females, and whether the findings are consistent with what was previously observed. This report described an open-label, single-center trial, designed as a two-period crossover study, performed on healthy Chinese subjects (n = 24) randomized to either the fasting overnight (FO) or the high-fat (HF) meal group, before receiving a single 200 mg dose of Ginsenoside CK Tablets. Consequently, this study also provides evidence for dosing regimens, for late-stage clinical studies and clinical applications. Supplementary Table 1. Sex differences of ginsenoside compound K in human (n = 12)."}, "[4]": {"set-up": "method as in Chen et al., [2014]", "conditions": "rats; ref Chen et al., [2014]; cited from earlier work"}, "[5]": {"conditions": "Abnormal urine routine, possible related"}, "[6]": {"conditions": "Elevated creatine kinase, possible related"}, "[7]": {"conditions": "Elevated direct bilirubin, probable related"}, "[8]": {"conditions": "Elevated triglycerides, possible related"}, "[9]": {"conditions": "Upper respiratory tract infection, possible related"}}, "note": "Marks after values point to notes of the source that are not given here."}
{"smiles": "CC(C)=CCCC(C)(OC1OC(CO)C(O)C(O)C1O)C1CCC2(C)C1C(O)CC1C3(C)CCC(O)C(C)(C)C3CCC12C", "note": "[CK, 20-O-beta-D-glucopyranosyl-20(S)-protopanaxadiol]", "values": [{"measurement": "Cumulative excretion rate", "setting": "[1]; FO, female", "result": "0.083 ± 0.049", "unit": "%"}, {"measurement": "Cumulative excretion rate", "setting": "[1]; FO, male", "result": "0.037 ± 0.029", "unit": "%"}, {"measurement": "Cumulative excretion rate", "setting": "[1]; HF, all subjects", "result": "0.020 ± 0.015", "unit": "%"}, {"measurement": "Cumulative excretion rate", "setting": "[1]; HF, female", "result": "0.019 ± 0.070", "unit": "%"}, {"measurement": "Cumulative excretion rate", "setting": "[1]; HF, male", "result": "0.022 ± 0.020", "unit": "%"}, {"measurement": "Cumulative excretion rate", "setting": "[1]; unchanged drug / dose, FO, all subjects", "result": "0.060 ± 0.046", "unit": "%"}, {"measurement": "Adverse events: Number of cases", "setting": "[2]; [5]", "result": "1^c"}, {"measurement": "Adverse events: Percentage", "setting": "[2]; [5]", "result": 4.2, "unit": "%"}, {"measurement": "Adverse events: Number of cases", "setting": "[2]; Bellyache, positive related", "result": "3^a"}, {"measurement": "Adverse events: Percentage", "setting": "[2]; Bellyache, positive related", "result": 12.5, "unit": "%"}, {"measurement": "Adverse events: Number of cases", "setting": "[2]; Diarrhea, probable related", "result": "1^b"}, {"measurement": "Adverse events: Percentage", "setting": "[2]; Diarrhea, probable related", "result": 4.2, "unit": "%"}, {"measurement": "Adverse events: Number of cases", "setting": "[2]; [6]", "result": "3^c"}, {"measurement": "Adverse events: Percentage", "setting": "[2]; [6]", "result": 12.5, "unit": "%"}, {"measurement": "Adverse events: Number of cases", "setting": "[2]; [7]", "result": "1^b"}, {"measurement": "Adverse events: Percentage", "setting": "[2]; [7]", "result": 4.2, "unit": "%"}, {"measurement": "Adverse events: Number of cases", "setting": "[2]; [8]", "result": "3^c"}, {"measurement": "Adverse events: Percentage", "setting": "[2]; [8]", "result": 12.5, "unit": "%"}, {"measurement": "Incidence of AEs classified as positive, probable and possible in relation to the test drug", "setting": "[2]; FO regimen", "result": 55.6, "unit": "%"}, {"measurement": "Incidence of AEs classified as positive, probable and possible in relation to the test drug", "setting": "[2]; HF regimen", "result": 44.4, "unit": "%"}, {"measurement": "Adverse events: Number of cases", "setting": "[2]; Hematuria, possible related", "result": "1^c"}, {"measurement": "Adverse events: Percentage", "setting": "[2]; Hematuria, possible related", "result": 4.2, "unit": "%"}, {"measurement": "Adverse events: Number of cases", "setting": "[2]; Nausea, probable related", "result": "1^b"}, {"measurement": "Adverse events: Percentage", "setting": "[2]; Nausea, probable related", "result": 4.2, "unit": "%"}, {"measurement": "Adverse events: Number of cases", "setting": "[2]; [9]", "result": "1^c"}, {"measurement": "Adverse events: Percentage", "setting": "[2]; [9]", "result": 4.2, "unit": "%"}, {"measurement": "Adverse events: Percentage", "setting": "[2]; Watery stool, positive related", "result": 16.7, "unit": "%"}, {"measurement": "Adverse events: Number of cases", "setting": "[2]; Watery stool, positive related to ginsenoside compound K, 24 subjects", "result": "4^a"}, {"measurement": "Intensity of AEs", "setting": "[2]; all AEs", "result": "mild"}, {"measurement": "Instances of AEs recorded", "setting": "[2]; both treatments", "result": 19}, {"measurement": "Number of subjects with AEs", "setting": "[2]; of 24 subjects", "result": 11}, {"measurement": "Subjects with AEs (percentage)", "setting": "[2]; of 24 subjects, both treatments", "result": 45.8, "unit": "%"}, {"measurement": "Abnormalities in physical examination, vital signs, ECGs, or standard clinical laboratory test results", "setting": "[2]; single 200 mg dose", "result": "not associated with any clinically significant abnormalities"}, {"measurement": "AUC(0-inf)", "setting": "[3]; female", "result": "4670 ± 2140", "unit": "ng·h/mL"}, {"measurement": "AUC(0-t)", "setting": "[3]; female", "result": "4490 ± 2030", "unit": "ng·h/mL"}, {"measurement": "Tmax", "setting": "[3]; female", "result": "2.58 ± 0.67", "unit": "h"}, {"measurement": "half-life", "setting": "[3]; female", "result": "5.66 ± 2.04", "unit": "h"}, {"measurement": "Cmax", "setting": "[3]; Female", "result": "873 ± 427", "unit": "ng/mL"}, {"measurement": "Cmax", "setting": "[3]; Male", "result": "601 ± 183", "unit": "ng/mL"}, {"measurement": "AUC(0-inf)", "setting": "[3]; male", "result": "3680 ± 1360", "unit": "ng·h/mL"}, {"measurement": "AUC(0-t)", "setting": "[3]; male", "result": "3600 ± 1320", "unit": "ng·h/mL"}, {"measurement": "Tmax", "setting": "[3]; male", "result": "3.19 ± 1.25", "unit": "h"}, {"measurement": "half-life", "setting": "[3]; male", "result": "4.15 ± 1.9", "unit": "h"}, {"measurement": "Dose exhibiting initial anti-inflammatory activity", "setting": "[4]", "result": 10, "unit": "mg/kg"}]}
